Experimental data: patent US20260193257A1, “BICYCLIC DERIVATIVES” (Elanco Tiergesundheit AG, priority 2018, published 2026)

Tests used:
D. immitis microfilariae = assay: Dog heart worm microfilariae motility assay; type: cell-based; details: Dirofilaria immitis, read-out: EC50 (motility inhibition)
[1] = system: H. contortus (H.c.) larvae; assay: Ruminant gastrointestinal (H. contortus) larval motility assay; details: Haemonchus contortus, read-out: EC50 (motility inhibition)
Procedure: H.c. eggs isolated from lamb fecal matter are allowed to hatch overnight. Test compounds are diluted in DMSO and added to a 96-well plate containing appropriate media. H.c. larvae are added to each well and plates are incubated for the desired time(s). Motility is assessed using an LCD camera imaging system. Percent motility inhibition values are generated relative to the average of the DMSO-only wells.

T. colubriformis = assay: Gastro intestinal nematodes, infected jird model (T. colubriformis); details: Jirds (Meriones unguiculatus), oral, Day 6 after infection, dose between 1×3 mg/kg and 1×32 mg/kg, worms recovered from small intestine three days after treatment
Procedure: Jirds (Meriones unguiculatus), are artificially infected by gavage with third instar larvae each of T. colubriformis and H. contortus. Then treated orally with the test compound formulated in eg DMSO/PEG 2/1, on Day 6 after infection at a dose in a range between 1×3 mg/kg up to 1×32 mg/kg. Three days after treatment, gerbils are euthanized and dissected to recover H. contortus from stomach and T. colubriformis from the small intestine. Efficacy is expressed as a % reduction in worm numbers in comparison with a placebo treated group, using the Abbot's formula.

L. sigmodontis = assay: L.s. model in mice; details: oral gavage, dose between 1×3 mg/kg and 5×32 mg/kg, necropsy 5 weeks after infection
Procedure: Model Mice, injected subcutaneously with infective L. sigmodontis larvae, were subsequently treated with the test article formulated in eg DMSO/PEG 2/1, by oral gavage at a dose in a range between 1×3 mg/kg up to 5×32 mg/kg (one dose per day for 5 consecutive days). At necropsy 5 weeks after infection, efficacy is calculated by counting developed larvae vs. untreated animals using Abbot's formula.

| SMILES | EC50 (D. immitis microfilariae) | EC50 [1] | Efficacy against Tc (% reduction in worm numbers vs placebo, Abbot's formula) (T. colubriformis) | Efficacy against Ls (developed larvae vs. untreated animals, Abbot's formula) (L. sigmodontis) |
| --- | --- | --- | --- | --- |
| CN(C)c1c(NC(=O)[C@@H]2CCOc3ccccc32)cnc2c(-c3cc(Cl)cc(Cl)c3)cccc12 [Example 1.1, (4R)—N-[8-(3,5-dichlorophenyl)-4-(dimethylamino)-3-quinolyl]chromane-4-carboxamide] | < 0.1 µg/mL | < 1 µg/mL | > 80% |  |
| CON(C)c1c(NC(=O)[C@@H]2CCOc3ccccc32)cnc2c(-c3cc(Cl)cc(Cl)c3)cccc12 [Example 1.7, (4R)-N-[8-(3,5-dichlorophenyl)-4-[methoxy(methyl)amino]-3-quinolyl]chromane-4-carboxamide] | < 0.1 µg/mL |  |  |  |
| CN(C)c1c(NC(=O)[C@H]2CCCc3ccccc32)cnc2c(-c3cc(Cl)cc(Cl)c3)cccc12 [Example 1.4, (1S)-N-[8-(3,5-dichlorophenyl)-4-(dimethylamino)-3-quinolyl]tetralin-1-carboxamide] | < 0.1 µg/mL | < 1 µg/mL |  | > 80% |
| CN(C)c1c(NC(=O)[C@H]2CCOc3ccccc32)cnc2c(-c3cc(Cl)cc(C(F)(F)F)c3)cccc12 [Example 1.11, (4S)-N-[8-[3-chloro-5-(trifluoromethyl)phenyl]-4-(dimethylamino)-3-quinolyl]chromane-4-carboxamide] | < 0.1 µg/mL | < 1 µg/mL |  |  |
| CN(C)c1c(NC(=O)[C@@H]2CCOc3ccccc32)cnc2c(-c3cc(Cl)cc(Cl)c3)nccc12 [Example 4.2, (4R)-N-[8-(3,5-dichloro-dichlorophenyl)-4-(dimethylamino)-1,7-naphthyridin-3-yl]chromane-4-carboxamide] |  | < 1 µg/mL |  |  |
| CN(C)c1c(NC(=O)N[C@H]2CCOc3ccccc32)cnc2c(-c3cc(Cl)cc(Cl)c3)cccc12 [Example 7.1, 1-[(4S)-Chroman-4-yl]-3-[8-(3,5-dichlorophenyl)-4-(dimethylamino)-3-quinolyl]urea] |  | < 1 µg/mL |  |  |
| O=C(Nc1cnc2c(-c3cc(Cl)cc(Cl)c3)cccc2c1N1CCOCC1)[C@H]1CCOc2ccccc21 [Example 1.12, (4S)-N-[8-(3,5-dichlorophenyl)-4-morpholino-3-quinolyl]chromane-4-carboxamide] | < 0.1 µg/mL | < 1 µg/mL |  |  |
| O=C(Nc1cnc2c(-c3cc(Cl)cc(Cl)c3)ccnc2c1N1CCOCC1)[C@H]1CCOc2ccccc21 [Example 6.3, (4S)-N-[8-(3,5-dichlorophenyl)-4-morpholino-1,5-naphthyridin-3-yl]chromane-4-carboxamide] | < 0.1 µg/mL | < 1 µg/mL |  |  |
| O=C(Nc1cnc2c(-c3cc(Cl)cc(Cl)c3)cccc2c1C1CC1)[C@H]1CCOc2ccccc21 [Example 1.6, (4S)-N-[4-cyclopropyl-8-(3,5-dichlorophenyl)-3-quinolyl]chromane-4-carboxamide] | < 0.1 µg/mL | < 1 µg/mL |  |  |
| CN(C)c1c(NC(=O)[C@@H]2CCCc3ccccc32)cnc2c(-c3cc(Cl)cc(Cl)c3)cccc12 [Example 1.3, (1R)-N-[8-(3,5-dichlorophenyl)-4-(dimethylamino)-3-quinolyl]tetralin-1-carboxamide] | < 0.1 µg/mL |  |  |  |
| CN(C)c1c(NC(=O)[C@@H]2CCOc3ccccc32)cnc2c(-c3cc(Cl)cc(Cl)c3)ccnc12 [Example 6.1, (4R)—N-[8-(3,5-dichlorophenyl)-4-(dimethylamino)-1,5-naphthyridin-3-yl]chromane-4-carboxamide] |  | < 1 µg/mL |  |  |
| CN(C)c1c(NC(=O)[C@H]2CCOc3ccccc32)cnc2c(-c3cccc(Cl)c3Cl)cccc12 [Example 1.9, (4S)-N-[8-(2,3-dichlorophenyl)-4-(dimethylamino)-3-quinolyl]chromane-4-carboxamide] | < 0.1 µg/mL | < 1 µg/mL |  |  |
| CN(C)c1c(NC(=O)[C@H]2CCOc3ccccc32)cnc2c(-c3cc(Cl)cc(Cl)c3)ccnc12 [Example 6.2, (4S)-N-[8-(3,5-dichlorophenyl)-4-(dimethylamino)-1,5-naphthyridin-3-yl]chromane-4-carboxamide] | < 0.1 µg/mL | < 1 µg/mL |  |  |
